Test results reported in the supplement of paper PMC10307832.

Key:
Assay in all cases: relative viability (nuclei count vs DMSO), 5 days (fraction); higher = more cells survive
[1] = compound: CN1CCN(CC1)C2=CC(=C(C=C2)NC3=NC=C4C(=N3)N(C5=CC=CC=C5C(=O)N4C)C)OC [XMD8-85] + CCNC(=O)c1noc(-c2cc(C(C)C)c(O)cc2O)c1-c1ccc(CN2CCOCC2)cc1 [Luminespib] (partner 0.01 µM)
Procedure, shortened: (§1)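 The day after seeding in 1536-well plates, lung cancer cell lines were treated by pin tool with a single drug, or with a fixed anchor-drug dose together with five library-drug doses (not always all listed) in √10 steps. After 5 days, a combined fix-and-stain solution (final 0.05% Triton X-100, 1% formaldehyde, 1 ug/ml Hoechst) was added. Nuclei counted on 4× images gave relative viability as treated counts over vehicle counts, reported as the median of duplicate plates.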

[2] = compound: CN1CCN(CC1)C2=CC(=C(C=C2)NC3=NC=C4C(=N3)N(C5=CC=CC=C5C(=O)N4C)C)OC [XMD8-85] + O=C(c1cc(Cc2n[nH]c(=O)c3ccccc23)ccc1F)N1CCN(C(=O)C2CC2)CC1 [Olaparib] (partner 8 µM)
Procedure, shortened: as §1

[3] = compound: O=C(O)C(Cc1ccccc1[N+](=O)[O-])=NNc1nc(-c2ccc(Cl)c(Cl)c2)cs1 (mixture of isomers) [4EGI-1] + CS(=O)(=O)N1CCN(Cc2cc3nc(-c4cccc5[nH]ncc45)nc(N4CCOCC4)c3s2)CC1 [Pictilisib] (partner 1 µM)
Procedure, shortened: as §1

[4] = compound: O=C(O)C(Cc1ccccc1[N+](=O)[O-])=NNc1nc(-c2ccc(Cl)c(Cl)c2)cs1 (mixture of isomers) [4EGI-1] + NC(=O)Nc1cc(-c2cccc(F)c2)sc1C(=O)N[C@H]1CCCNC1 [AZD7762] (partner 0.2 µM)
Procedure, shortened: as §1

| Cell Line | relative viability ([1]; first compound 0.08 µM) | relative viability ([1]; first compound 0.253 µM) | relative viability ([1]; first compound 0.8 µM) | relative viability ([1]; first compound 2.53 µM) | relative viability ([1]; first compound 8 µM) | relative viability ([2]; first compound 0.08 µM) | relative viability ([2]; first compound 0.253 µM) | relative viability ([2]; first compound 0.8 µM) | relative viability ([2]; first compound 2.53 µM) | relative viability ([3]; first compound 0.5 µM) | relative viability ([3]; first compound 1.581 µM) | relative viability ([3]; first compound 5 µM) | relative viability ([3]; first compound 15.81 µM) | relative viability ([3]; first compound 50 µM) | relative viability ([4]; first compound 0.5 µM) | relative viability ([4]; first compound 1.581 µM) | relative viability ([4]; first compound 5 µM) | relative viability ([4]; first compound 15.81 µM) | relative viability ([4]; first compound 50 µM) | relative viability ([2]; first compound 8 µM) |
| --- | --- | --- | --- | --- | --- | --- | --- | --- | --- | --- | --- | --- | --- | --- | --- | --- | --- | --- | --- | --- |
| NCI-H1666 | 1 | 1.03 | 0.986 | 1.04 | 0.877 | 0.697 | 0.716 | 0.742 | 0.773 | 0.38 | 0.343 | 0.524 | 0.376 | 0.266 | 0.81 | 0.68 | 0.757 | 0.497 | 0.341 | – |
| NCI-H1734 | 0.176 | 0.173 | 0.213 | 0.205 | 0.151 | 0.672 | 0.616 | 0.629 | – | 0.52 | 0.359 | 0.463 | 0.397 | 0.316 | 0.596 | 0.455 | 0.573 | 0.32 | 0.178 | 0.508 |
| NCI-H1755 | 0.672 | 0.414 | 0.344 | 0.482 | 0.342 | 0.974 | 0.906 | 0.862 | 0.85 | 0.604 | 0.477 | 0.459 | 0.398 | 0.235 | 0.441 | 0.411 | 0.457 | 0.344 | 0.252 | 0.899 |
| NCI-H1793 | 0.144 | 0.182 | 0.146 | 0.201 | 0.23 | – | 0.574 | 0.71 | 1.02 | 0.363 | 0.266 | 0.377 | 0.241 | 0.235 | 0.766 | 0.41 | 0.809 | 0.276 | 0.218 | 0.66 |
